According to US5607926A, “Cephalosporin antibiotics” (Microcide Pharmaceuticals, Inc., priority 1995, dated 1997):
In brackets after ≈: the same amount, converted by molar mass. Structures can show the parent of a compound that is named as a salt. Where two headings read alike, the source gives them in different places.

Columns and labels:
[1] = tested on: methicillinsusceptible S. aureus strain ATCC 13709; assay: In vivo antibacterial evaluation, murine model for lethal bacteremic peritonitis; design: species or system S. aureus in female Swiss-Webster mice; conditions: Staphylococcus aureus, ATCC13709, sc, 72 h, two equal SC doses at challenge and 2 hours later, mice, probit
Procedure: Groups of 5 female Swiss-Webster mice (Simonsen, Gilroy, Calif.) each are challenged by the intraperitoneal (IP) route with ten-fold increments of a bacterial inoculum. This permits calculation of the mean lethal dose (LD50) and the LD100. For preliminary evaluation of a new antibiotic, mice are challenged IP with an LD100 titer of bacteria. In two equal doses administered at the time of bacterial challenge and 2 hours later, groups of 10 mice each are treated subcutaneously with two-fold increments of the test drug and an antibiotic of known efficacy in mice and humans (i.e., positive control). Mice are observed for 72 h. Those alive at 72 h are considered long term survivors. The total drug dose in mg/kg that protects 50% of mice in a group from death is termed the mean protective dose (PD50). PD50 s are similarly determined for several pathogens. The quantitative endpoints for the new drug are then compared with those obtained with reference antibiotics.
Six ten-fold dilutions of inoculum suspended in 0.5 mL of sterilized 7% hog gastric mucin (Sigma) are injected IP in groups of 5 mice each. A control group of 5 mice receive mucin alone. Mice are observed for 72 h. Those alive at 72 h are considered long term survivors. The mean lethal dose (LD50) and 100% lethal dose (LD100) are determined by the probit test.
For antibiotic efficacy studies, mice are challenged IP with bacterial titers that will afford an LD100 for the test strain. In two equal doses administered at the time of bacterial challenge and 2 hours later, groups of 10 mice each are treated by the subcutaneous route (SC) with twofold increments of the test antibiotic; another group is treated similarly with a reference antibiotic of known efficacy in animals and man. Drug doses can range from 0.01 to 512 mg/kg. If the drug is poorly soluble, Tween 20 or propylene glycol will be employed to solubilize the drug. Animals are observed for 72 h. The 50% protective dose (PD50) is calculated in mg/kg by the probit method. The PD50 is the same as the 50% effective dose (ED50) and the 50% curative dose (CD50). Samples of blood from the hearts of all animals that die and from half the mice that survive are cultured on brain-heart infusion agar. Animals that received a protective dosage of the test drug will be alive at 72 h, although they may appear moderately ill to very ill during the observation period. […] Most of these mice will die within 6 to 48 h. Those alive at 72 h will be considered long term survivors.
(§1) data reported for challenge with methicillinsusceptible S. aureus strain

[2] = tested on: S. aureus Col8A (Meth^S)(lac^-); assay: In vitro antibacterial evaluation, MIC by agar dilution, S. aureus Col8A; type: cell-based; conditions: Staphylococcus aureus
Method in brief: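 Agar dilution per NCCLS (1991): two-fold dilutions from 128 μg/mL down to ≤0.25 μg/mL in Mueller-Hinton agar, each level in duplicate. Spots of about 10^4 cfu of log-phase culture; 16-20 h at 35°-36° C. MIC in μg/ml is the lowest concentration inhibiting growth.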

[3] = tested on: E. coli ATCC 25922; assay: In vitro antibacterial evaluation, MIC by agar dilution, E. coli ATCC 25922; type: cell-based; conditions: Escherichia coli, ATCC25922, read-out: MIC
Method in brief: (§2)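 Minimum inhibitory concentrations came from the NCCLS agar dilution method in Mueller-Hinton agar. Each isolate received about 10^4 cfu per spot, and plates were read after 16-20 hours at 35°-36° C.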

[4] = tested on: P. aeruginosa ATCC 27853; assay: In vitro antibacterial evaluation, MIC by agar dilution, P. aeruginosa ATCC 27853; type: cell-based; conditions: Pseudomonas aeruginosa, ATCC27853, read-out: MIC
Method in brief: as §2

[5] = tested on: S. aureus ATCC 29213; assay: In vitro antibacterial evaluation, MIC by agar dilution, S. aureus ATCC 29213; type: cell-based; conditions: Staphylococcus aureus, ATCC29213
Method in brief: as §2

[6] = tested on: methicillinsusceptible S. aureus strain ATCC 13709; assay: Challenge strain MIC; type: cell-based; conditions: Staphylococcus aureus
Procedure: The compounds of the invention were evaluated against several β-lactamresistant bacteria strains by determining the minimum inhibitory concentration (MIC, μg/ml) of each compound with respect to each strain. The MIC, the lowest concentration of antibiotic which inhibits growth of the test organism, was determined by the agar dilution method.
To determine the MIC for bacterial isolates, the test compound was incorporated in a series of two-fold dilutions into liquified Mueller-Hinton agar. Upon solidification, a number of different bacterial strains were spot inoculated with a replicating device onto the agar surface. […] The procedures used in these studies have been standardized by the National Committee for Clinical Laboratory Standards (NCCLS), as per the NCCLS publication entitled METHODS FOR DILUTION ANTIMICROBIAL SUSCEPTIBILITY TESTS (1991), which is incorporated herein by reference.
Aliquots of antimicrobial agents were prepared in phosphate buffered saline (PBS) at pH 7.2. Tween 20 or DMSO was used as a solubilizing vehicle as needed. Standard methods of vortexing, sonicating and gentle heat were used to facilitate solubilizing the test agent. Typically, the concentration of the stock solution was 10× that of the highest drug concentration tested. A 1.28 mg/mL stock solution was used with a subsequent highest working concentration of 128 μg/mL. Serial two-fold dilutions were done through ≤0.25 μg/mL. Each drug level was tested in duplicate. Two-fold drug dilutions were done in sterile 50 mL tubes with a final drug volume of 5 mL. Upon the addition of 45 mL of molten agar, a 10-fold dilution resulted. Two, 25 mL. plates were then poured into 15×150 mm square Petri plates with grids and allowed to harden.
A control plate with a reference drug, either cefotaxime, vancomycin or imipenem, was used as the positive growth control. Stock concentrations of reference antibiotics were prepared and frozen at -80° C. Upon preparation, the control plates were sealed and stored in the refrigerator for up to 1 week prior to use; however, imipenem control plates had to be prepared just prior to use. All test plates were used within 24 hours of preparation.
Satisfactory results were obtained where the inoculum contained about 10^4 colony forming units (cfu) ±0.5 logs. Starting with pure cultures of the test isolates on agar plates, a few isolated colonies were transferred to a tube of nutrient broth and allowed to grow 4-6 hours at 35°-36° C. to reach log-phase growth. Dropwise addition of the broth culture to PBS was done to match a 0.5 McFarland turbidity standard equal to 10^8 cfu/mL. This was further diluted ten-fold in PBS to reach a working inoculum concentration of 10^7 cfu/mL. When 1 μL of the working inoculum was applied to the agar surface a concentration of about 10^4 cfu per spot was obtained.
Disposable sterile 1 μL loops were used to inoculate test plates, with each isolate in a designated grid on the agar plate. An alternate method of inoculation involved the use of a replica plater, a device with 48 steel pins allowing the simultaneous inoculation of multiple isolates. After the spots had dried, the plates were incubated at 35°-36° C. for 16-20 hours. Endpoints were assessed as the minimum inhibitory concentration (MIC) of antimicrobial agent.
as §1

[7] = tested on: S. haemolyticus (Meth^R); assay: In vitro antibacterial evaluation, MIC by agar dilution, S. haemolyticus; type: cell-based; conditions: Staphylococcus haemolyticus, read-out: MIC
Method in brief: as §2

[8] = tested on: E. faecalis ATCC 29212; assay: In vitro antibacterial evaluation, MIC by agar dilution, E. faecalis ATCC 29212; type: cell-based; conditions: Enterococcus faecalis, ATCC29212; E. faecalis ATCC 29212; read-out: MIC
Method in brief: as §2

[9] = tested on: S. aureus 76 (Meth^R)(lac^+); assay: In vitro antibacterial evaluation, MIC by agar dilution, S. aureus 76; type: cell-based; conditions: Staphylococcus aureus, read-out: MIC
Method in brief: as §2

[10] = tested on: E. faecium ATCC 35667; assay: In vitro antibacterial evaluation, MIC by agar dilution, E. faecium ATCC 35667; type: cell-based; conditions: Enterococcus faecium, ATCC35667, read-out: MIC
Method in brief: as §2

[11] = ATCC13709, S. aureus ATCC 13709, read-out: Challenge str MIC
[12] = ATCC13709, read-out: Challenge str MIC

SMILES | ED50 ([1]; read-out: ED50) [mg/kg] | MIC [2] [µg/mL] | MIC [3] [µg/mL] | MIC [4] [µg/mL] | MIC ([5]; S. aureus ATCC 29213, read-out: MIC) [µg/mL] | MIC [6, 11] [µg/mL] | MIC [7] [µg/mL] | MIC [8] [µg/mL] | MIC [9] [µg/mL] | MIC [10] [µg/mL] | MIC [5] [µg/mL] | MIC [6, 12] [µg/mL] | ED50 [1] [mg/kg]
N=C(N)SCc1ccc(CC(=O)N[C@@H]2C(=O)N3C(C(=O)O)=C(Sc4ccccc4CSC(=N)N)CS[C@H]23)cc1 [Cmpd 97, (7R)-7-[((4-isothiouroniummethylphenyl)acetyl)amino]-3-(2-isothiouroniummethylphenylthio)-3-cephem-4-carboxylate, trifluoroacetic acid salt] | 0.74 | 0.125 | > 32 | > 32 | 0.06 | 0.062 | 8 | 0.5 | 4 | 1 |  |  | 
N=C(N)SCc1ccccc1SC1=C(C(=O)O)N2C(=O)[C@@H](NC(=O)Cc3ccccc3CN)[C@H]2SC1 [Cmpd 101, (7R)-7-[((2-Aminomethylphenyl)acetyl)amino]-3-(2-isothiouroniummethylphenylthio)-3-cephem-4-carboxylate, trifluoroacetic acid salt] | 0.65 | 0.25 | > 32 | > 32 |  | 0.125 | 16 | 1 | 8 | 2 | 0.25 |  | 
N#Cc1ncccc1SC1=C(C(=O)O)N2C(=O)[C@@H](NC(=O)Cc3ccccc3)[C@H]2SC1 [Cmpd 102, (7R)-7-[(Phenylacetyl)amino]-3-(2-cyanopyridin-3-ylthio)-3-cephem-4-carboxylic acid] | 1.75 | 0.125 (≈ 0.276 µM) | 32 (≈ 70.7 µM) | > 32 |  |  | 32 (≈ 70.7 µM) | 2 (≈ 4.42 µM) | 16 (≈ 35.4 µM) | 4 (≈ 8.84 µM) | 0.125 (≈ 0.276 µM) | 0.125 (≈ 0.276 µM) | 
O=C(Cc1ccccc1)N[C@@H]1C(=O)N2C(C(=O)O)=C(Sc3cccnc3-n3cccn3)CS[C@H]12 [Cmpd 103, (7R)-7-[(Phenylacetyl)amino]-3-(2-(pyrazol-1-yl)pyridin-3-ylthio)-3-cephem-4-carboxylic acid] | 2.67 | 0.25 (≈ 0.507 µM) | > 32 | > 32 |  | 0.125 (≈ 0.253 µM) | 4 (≈ 8.1 µM) | 1 (≈ 2.03 µM) | 8 (≈ 16.2 µM) | 2 (≈ 4.05 µM) | 0.25 (≈ 0.507 µM) |  | 
O=C(CS/C=C\Cl)N[C@@H]1C(=O)N2C(C(=O)O)=C(Sc3ccnn3-c3ccccc3)CS[C@H]12 [Cmpd 131, (7R)-7-[((Z-2-Chlorovinyl)thioacetyl)amino]-3-(1-N-phenylpyrazol-5-ylthio)-3-cephem-4-carboxylic acid] | 1.73 |  | > 32 | > 32 |  | 0.06 (≈ 0.118 µM) | 32 (≈ 62.9 µM) | 0.5 (≈ 0.982 µM) | 4 (≈ 7.86 µM) | 1 (≈ 1.96 µM) |  |  | 
N=C(N)NCCSCC(=O)N[C@@H]1C(=O)N2C(C(=O)O)=C(Sc3ccccc3CSC(=N)N)CS[C@H]12 [Cmpd 137, (7R)-7-[((2-guanidinoethylthio)acetyl)amino]-3-(2-isothiouroniummethylphenylthio)-3-cephem-4-carboxylate, trifluoroacetic acid salt] | 0.75 | 0.06 | 4 | > 32 |  | 0.06 | 16 | 0.5 | 4 | 0.25 |  |  | 
CN[C@H](CC(C)C)C(=O)N[C@H]1C(=O)N[C@@H](CC(N)=O)C(=O)N[C@H]2C(=O)N[C@H]3C(=O)N[C@H](C(=O)N[C@H](C(=O)O)c4cc(O)cc(O)c4-c4cc3ccc4O)[C@H](O)c3ccc(c(Cl)c3)Oc3cc2cc(c3O[C@@H]2O[C@H](CO)[C@@H](O)[C@H](O)[C@H]2O[C@H]2C[C@](C)(N)[C@H](O)[C@H](C)O2)Oc2ccc(cc2Cl)[C@H]1O [Vancomycin, reference compound] |  |  |  |  |  |  |  |  |  |  |  | 1 (≈ 0.69 µM) | 2.81
